# Data as given in US6645529B2, “Instant granules and process for their formulation” (Dr. Gergely & Co., priority 2000, dated 2003).
# Legend:
# [1] = bulk density; assay type: physicochemical; details: for bulk density (g/100 ml): Table 1, preferred carrier materials; for Bulk density in g/100 ml: Table 3, carrier materials
# [2] = dissolving times of different carrier materials; assay type: physicochemical; details: 10 g in 100 ml water of 17° C., stirred at 500 rpm, visual
# Procedure: Testing conditions: 10 g of each carrier material was added to 100 ml water of 17° C. in a 400 ml beaker and stirred at 500 rpm by a magnetic stirrer. Dissolution was determined visually.
# [3] = listed as mannitol (fine granulated)
Compound,bulk density (g/100 ml) [1],Dissolving time [2],Bulk density in g/100 ml [1],"Dissolving time [2, 3]","Bulk density in g/100 ml [1, 3]"
"OC[C@@H](O)[C@@H](O)[C@H](O)[C@H](O)CO [mannitol (spray dried), mannitol]",45 g/100 ml,55 s,45 g/100 ml,,
OC[C@@H](O)[C@@H](O)[C@H](O)[C@H](O)CO [mannitol],63 g/100 ml,,,95 s,62 g/100 ml
OC[C@H]1O[C@@H](O[C@H]2[C@H](O)[C@@H](O)C(O)O[C@@H]2CO)[C@H](O)[C@@H](O)[C@H]1O (stereo partly drawn) [lactose],69 g/100 ml,120 s,69 g/100 ml,,
OC[C@H]1O[C@@](CO)(O[C@H]2O[C@H](CO)[C@@H](O)[C@H](O)[C@H]2O)[C@@H](O)[C@@H]1O [instant sugar],50 g/100 ml,15 s,45 g/100 ml,,
O.O=P([O-])(O)O.O=P([O-])(O)O.[Ca+2] [monocalcium phosphate.H2O],82 g/100 ml,,,,
OC[C@@H](O)[C@@H](O[C@H]1O[C@H](CO)[C@@H](O)[C@H](O)[C@H]1O)[C@H](O)[C@@H](O)CO [hydrogenated maltose],90 g/100 ml,200 s,90 g/100 ml,,

# Continued, values first:
bulk density (g/100 ml) [1],Dissolving time [2],Bulk density in g/100 ml [1],"Dissolving time [2, 3]","Bulk density in g/100 ml [1, 3]",Compound
88 g/100 ml,,,,,"OC[C@H]1O[C@@](CO)(O[C@H]2O[C@H](CO)[C@@H](O)[C@H](O)[C@H]2O)[C@@H](O)[C@@H]1O [saccharose (coarse grain), saccharose]"
95 g/100 ml,85 s,95 g/100 ml,,,O.O.O=C([O-])CC(O)(CC(=O)[O-])C(=O)[O-].[Na+].[Na+].[Na+] [trisodiumcitrate.2H2O]
45 g/100 ml,50 s,45 g/100 ml,,,"OC[C@@H](O)[C@@H](O)[C@H](O)[C@@H](O)CO [sorbitol (spray dried), sorbitol]"
81 g/100 ml,,,,,"OC[C@H]1O[C@@](CO)(O[C@H]2O[C@H](CO)[C@@H](O)[C@H](O)[C@H]2O)[C@@H](O)[C@@H]1O [saccharose (fine grain), saccharose]"
58 g/100 ml,90 s,58 g/100 ml,,,OC[C@@H](O)[C@@H](O)[C@H](O)[C@@H](O)CO [sorbitol]
